Experimental findings from patent US7335661B2, “Fungicidal mixtures” (BASF Aktiengesellschaft, priority 2002, dated 2008) are described below.

One assay deals with Puccinia recondita. The experiment in a line: Curative activity against wheat leaf rust caused by Puccinia recondita. It counts as in vivo. Particulars: individual active compound, 7 days. As to the method:
(§1) The active compounds, separately or jointly, were prepared as a stock solution with 0.25% by weight of active compound in acetone or DMSO. 1% by weight of the emulsifier Uniperol® EL (wetting agent having emulsifying and dispersing action based on ethoxylated alkylphenols) was added to this solution, and the solution was diluted with water to the desired concentration.
Leaves of potted wheat seedlings of the cultivar “Kanzler” were dusted with spores of leaf rust (Puccinia recondita). For 24 hours, the pots were then placed at 20-22_C in a chamber with high atmospheric humidity (90-95%). During this time, the spores germinated and the germinal tubes penetrated into the leaf tissue. The next day, the infected plants were sprayed to runoff point with an aqueous suspension having the concentration of active compounds stated below. The suspension or emulsion was prepared as described above. After the spray coating had dried on, the test plants were cultivated in a greenhouse at 20-22_C and 65-70% relative atmospheric humidity for 7 days. The extent of rust fungus development on the leaves was then determined.
(§2) Evaluation was carried out by determining the infected leaf areas as a percentage. These percentages were converted into efficacies. The efficacy (W) was calculated as follows using Abbot's formula: W=(1−a/b)·100 • a corresponds to the fungal infection of the treated plants in % and • b corresponds to the fungal infection of the untreated (control) plants in %
(§3) An efficacy of 0 means that the infection level of the treated plants corresponds to that of the untreated control plants; an efficacy of 100 means that the treated plants were not infected.
(§4) The expected efficacies of the mixtures of the active compounds were determined using Colby's formula [R. S. Colby, Weeds 15, 20-22 (1967)] and compared with the observed efficacies. Colby's formula: E=x+y−x·y/100 • E expected efficacy, expressed as % of the untreated control, when using the mixture of the active compounds A and B at the concentrations a and b • x efficacy, expressed as % of the untreated control, when using active compound A at a concentration a • y efficacy, expressed as % of the untreated control, when using active compound B at a concentration b

In the next assay the test system is Botrytis cinerea. Description: Activity against gray mold on bellpepper leaves caused by Botrytis cinerea, protective application. The format is in vivo. To be noted: individual active compound, bellpepper seedlings, 5 days. As to the method:
as §1, §2, §3, §4
Bellpepper seedlings of the cultivar “Neusiedler Ideal Elite” were, after 4-5 leaves were well developed, sprayed to runoff point with an aqueous suspension having the active compound concentration stated below. The next day, the treated plants were inoculated with a spore suspension of Botrytis cinerea which contained 1.7×10^6 spores/ml in a 2% strength aqueous biomalt solution. The test plants were then placed in a climatized chamber at 22-24_C and high atmospheric humidity. After 5 days, the extent of the fungus development on the leaves could be determined visually in %.
Evaluation was carried out analogously to example 1.

Where [1] appears, read: 4 ppm in the spray liquor, wheat seedlings cv. Kanzler.

Each structure is given as a SMILES string.

Take `CC1CCN(c2c(-c3c(F)cc(F)cc3F)c(Cl)nc3ncnn23)CC1` [I, 5-chloro-7-(4-methylpiperidin-1-yl)-6-(2,4,6-trifluorophenyl)-[1,2,4]triazolo[1,5-a]pyrimidine]: the “Efficacy in % of the untreated control” value with Puccinia recondita (1 ppm in the spray liquor, wheat seedlings) came to 0%; with Puccinia recondita (setting [1]), 56%; in the assay with Botrytis cinerea (0.25 ppm in the spray liquor), 0%; in the assay with Botrytis cinerea (1 ppm in the spray liquor), 37%; in the assay on Botrytis cinerea (4 ppm in the spray liquor), 68%.
`O=C(Nc1ccccc1-c1ccc(Cl)cc1)c1cccnc1Cl` [II-5, boscalid, reference compound]: the “Efficacy in % of the untreated control” value with Puccinia recondita (0.25 ppm in the spray liquor, wheat seedlings) was found to be 0%; with Puccinia recondita (setting [1]), 0%; in the assay with Botrytis cinerea (0.25 ppm in the spray liquor), 0%; in the assay with Botrytis cinerea (1 ppm in the spray liquor), 0%.
